Measurements as given in patent US20230116114A1, “COMPOUNDS AND COMPOSITIONS FOR TREATING CNS DISORDERS” (Blue Oak Pharmaceuticals, Inc., priority 2020, published 2023).
Counter-ions that a name gives are not always drawn.

Test system: mice
Assay: SmartCube in vivo neuropharmacological behavioral assay
Settings: for minimal effective dose: Mus musculus, ip, 0.25 h, dose having 50% or more total activity in SmartCube, i.p., read-out: MED (minimal effective dose); for AD: antidepressant (percent probability) / AG: analgesic (percent probability) / AP: antipsychotic (percent probability) / AX: anxiolytic (percent probability) / CE: cognitive enhancer (percent probability) / HA: hallucinogenic (percent probability) / MS: mood stabilizer (percent probability) / PS (percent probability) / SD: sedative hypnotic (percent probability) / SE: side effects (percent probability) / UN: uncharacterized CNS activity (percent probability) / XG: anxiogenic (percent probability): SmartCube, i.p. 15 min before test, result at the MED
In short: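 Mice dosed i.p. in NMP (Pharmasolve) 15 min before automated video behavioral testing at several doses (e.g., 0.3-30 mpk). Signatures compared to reference drug classes giving per-class probabilities (0-100); MED is the lowest dose with ≥50% total activity.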

| Compound | minimal effective dose | AD: antidepressant (percent probability) | AG: analgesic (percent probability) | AP: antipsychotic (percent probability) | AX: anxiolytic (percent probability) | CE: cognitive enhancer (percent probability) | HA: hallucinogenic (percent probability) | MS: mood stabilizer (percent probability) | PS (percent probability) | SD: sedative hypnotic (percent probability) | SE: side effects (percent probability) | UN: uncharacterized CNS activity (percent probability) | XG: anxiogenic (percent probability) |
| --- | --- | --- | --- | --- | --- | --- | --- | --- | --- | --- | --- | --- | --- |
| CC1CC2c3ccccc3C(C1)N2C1CC1 (stereo not shown) [Compound 38, 12-azatricyclo[6.3.1.0^2,7]dodeca-2,4,6-trien-10-yl}methylium hydrochloride] | 10 to 30 mg/kg | ++++ (50% ≤ X < 100%) | + (LOQ ≤ X < 5%) | + (LOQ ≤ X < 5%) | + (LOQ ≤ X < 5%) | ++ (5% ≤ X < 25%) | ++ (5% ≤ X < 25%) | + (LOQ ≤ X < 5%) | + (LOQ ≤ X < 5%) | + (LOQ ≤ X < 5%) | + (LOQ ≤ X < 5%) | + (LOQ ≤ X < 5%) | + (LOQ ≤ X < 5%) |
| CC(C)N1C2CCC(=O)C1c1ccccc12 (stereo not shown) [Compound 39, hydrochloride] | > 30 mg/kg | + (LOQ ≤ X < 5%) | + (LOQ ≤ X < 5%) | + (LOQ ≤ X < 5%) | + (LOQ ≤ X < 5%) | + (LOQ ≤ X < 5%) | + (LOQ ≤ X < 5%) | + (LOQ ≤ X < 5%) | + (LOQ ≤ X < 5%) | + (LOQ ≤ X < 5%) | + (LOQ ≤ X < 5%) | + (LOQ ≤ X < 5%) | + (LOQ ≤ X < 5%) |
| Fc1cc2c(cc1F)C1CCCC2N1 [Compound 40, 4,5-Difluoro-12-azatricyclo[6.3.1.0^2,7]dodeca-2,4,6-triene hydrochloride] | > 30 mg/kg | ++ (5% ≤ X < 25%) | ++ (5% ≤ X < 25%) | + (LOQ ≤ X < 5%) | ++ (5% ≤ X < 25%) | + (LOQ ≤ X < 5%) | + (LOQ ≤ X < 5%) | + (LOQ ≤ X < 5%) | ++ (5% ≤ X < 25%) | + (LOQ ≤ X < 5%) | + (LOQ ≤ X < 5%) | + (LOQ ≤ X < 5%) | + (LOQ ≤ X < 5%) |
| CC(C)N1C2CCCC1c1cc(F)c(F)cc12 [Compound 41, 4,5-Difluoro-12-(propan-2-yl)-12-azatricyclo[6.3.1.0^2,7]dodeca-2,4,6-triene] | 10 to 30 mg/kg | ++ (5% ≤ X < 25%) | ++ (5% ≤ X < 25%) | ++ (5% ≤ X < 25%) | ++ (5% ≤ X < 25%) | ++ (5% ≤ X < 25%) | + (LOQ ≤ X < 5%) | + (LOQ ≤ X < 5%) | + (LOQ ≤ X < 5%) | + (LOQ ≤ X < 5%) | + (LOQ ≤ X < 5%) | +++ (25% ≤ X < 50%) | + (LOQ ≤ X < 5%) |
